Reference: ChEMBL document CHEMBL4673317, “Linearolactone and Kaempferol Disrupt the Actin Cytoskeleton in Entamoeba histolytica: Inhibition of Amoebic Liver Abscess Development” (J Nat Prod, 2020)
Active and inactive are the calls of the source. The calls are words filed in the database; no cut-off is given here.

Legend:
Entamoeba histolytica [1] = assay: Induction of apoptosis in Entamoeba histolytica […] trophozoites assessed as viable cells at IC50 concentration after 48 hrs by annexin-V-FITC/propidium iodide staining based flow cytometric analysis (reference value: 98%); format: functional, HM-1:IMSS
Entamoeba histolytica [2] = assay: Antimicrobial activity against Entamoeba histolytica […] trophozoites infected in Syrian hamster assessed as inhibition of amoebic liver abscess by measuring edema at 0.5 mg/kg, ip at 4 days post infection and measured on day 8 by H and E staining based microscopic method; format: functional, organism-based; conditions: HM-1:IMSS, time 4.0 day
Entamoeba histolytica [3] = assay: Induction of ROS generation in Entamoeba histolytica […] trophozoites at IC50 concentration incubated for 1 hr in presence of trolox by DCFDA staining based assay relative to control; format: functional, HM-1:IMSS
Entamoeba histolytica [4] = assay: Antimicrobial activity against Entamoeba histolytica […] trophozoites infected in Syrian hamster assessed as total bilirubin level at 0.05 mg/kg, ip at 4 days post infection and measured on day 8 (reference value: 0.8 +/- 0.2 mg/dl); format: functional, HM-1:IMSS; conditions: time 4 day
Entamoeba histolytica [5] = assay: Antimicrobial activity against Entamoeba histolytica […] trophozoites assessed as decrease in number of vacuoles at IC50 concentration after 48 hrs by uranyl acetate staining based TEM analysis; format: functional, organism-based; conditions: HM-1:IMSS
Entamoeba histolytica [6] = assay: Antimicrobial activity against Entamoeba histolytica HM1:MMS assessed as reduction in amoeba growth; format: functional, organism-based; conditions: HM-1:IMSS
Entamoeba histolytica [7] = assay: Induction of apoptosis in Entamoeba histolytica […] trophozoites assessed as necrotic cells at IC50 concentration after 48 hrs by annexin-V-FITC/propidium iodide staining based flow cytometric analysis (reference value: 0.4%); format: functional, HM-1:IMSS
Entamoeba histolytica [8] = assay: Antimicrobial activity against Entamoeba histolytica […] trophozoites assessed as abnormal condensation of chromatin at IC50 concentration after 48 hrs by uranyl acetate staining based TEM analysis; format: functional, organism-based; conditions: HM-1:IMSS
CHO-K1 = assay: Cytotoxicity against CHO-K1 cells assessed as reduction in cell viability after 24 hrs by MTT assay; format: cell-based; conditions: Cricetulus griseus, CHO-K1, 24 h
Entamoeba histolytica [9] = assay: Antimicrobial activity against Entamoeba histolytica […] trophozoites infected in Syrian hamster assessed as ALT level at 0.05 mg/kg, ip at 4 days post infection and measured on day 8 (reference value: 276 +/- 24 U/L); format: functional, HM-1:IMSS; conditions: time 4 day
Entamoeba histolytica [10] = assay: Antimicrobial activity against Entamoeba histolytica […] trophozoites infected in Syrian hamster assessed as inhibition of amoebic liver abscess by abundant monocytes at 0.5 mg/kg, ip at 4 days post infection and measured on day 8 by H and E staining based microscopic method; format: functional, organism-based; conditions: HM-1:IMSS, time 4.0 day
Entamoeba histolytica [11] = assay: Induction of ROS generation in Entamoeba histolytica […] trophozoites at IC50 concentration incubated for 1 hr by DCFDA staining based assay; format: functional, organism-based; conditions: HM-1:IMSS
Entamoeba histolytica [12] = assay: Antimicrobial activity against Entamoeba histolytica […] trophozoites infected in Syrian hamster assessed as inhibition of amoebic liver abscess by measuring vascular congestion at 0.5 mg/kg, ip at 4 days post infection and measured on day 8 by H and E staining based microscopic method; format: functional, organism-based; conditions: HM-1:IMSS, time 4.0 day
Entamoeba histolytica [13] = assay: Antimicrobial activity against Entamoeba histolytica […] trophozoites infected in Syrian hamster assessed as platelets at 0.05 mg/kg, ip at 4 days post infection and measured on day 8 (reference value: 439 +/- 108 […]); format: functional, HM-1:IMSS; conditions: time 4 day
Giardia intestinalis = assay: Antigiardial activity against Giardia lamblia WB infected in ig dosed CD-1 mouse assessed as reduction in parasite growth after 8 days; format: functional; conditions: Giardia duodenalis, po, 192 h, time 8 day
Entamoeba histolytica [14] = assay: Antimicrobial activity against Entamoeba histolytica […] trophozoites infected in Syrian hamster assessed as creatinine level at 0.05 mg/kg, ip at 4 days post infection and measured on day 8 (reference value: 0.9 +/- 0.06 mg/dl); format: functional, HM-1:IMSS; conditions: time 4 day
Entamoeba histolytica [15] = assay: Antimicrobial activity against Entamoeba histolytica […] trophozoites assessed as decrease in size of cells at IC50 concentration after 48 hrs by uranyl acetate staining based TEM analysis; format: functional, organism-based; conditions: HM-1:IMSS
Entamoeba histolytica [16] = assay: Antimicrobial activity against Entamoeba histolytica […] trophozoites infected in Syrian hamster assessed as urea level at 0.05 mg/kg, ip at 4 days post infection and measured on day 8 (reference value: 14 +/- 1 mg/dl); format: functional, HM-1:IMSS; conditions: time 4 day
Entamoeba histolytica [17] = assay: Antimicrobial activity against Entamoeba histolytica […] trophozoites infected in Syrian hamster assessed as glucose level at 0.05 mg/kg, ip at 4 days post infection and measured on day 8 (reference value: 126 +/- 18 mg/dl); format: functional, HM-1:IMSS; conditions: time 4 day
Entamoeba histolytica [18] = assay: Antimicrobial activity against Entamoeba histolytica […] trophozoites infected in Syrian hamster assessed as inhibition of amoebic liver abscess at 0.5 mg/kg, ip at 4 days post infection and measured on day 8 by NMR analysis; format: functional, organism-based; conditions: HM-1:IMSS, time 4.0 day
Entamoeba histolytica [19] = assay: Antimicrobial activity against Entamoeba histolytica […] trophozoites infected in Syrian hamster assessed as total leukocytes at 0.05 mg/kg, ip at 4 days post infection and measured on day 8 (reference value: 18 +/- 16 […]/mm3); format: functional, HM-1:IMSS; conditions: time 4 day
Entamoeba histolytica [20] = assay: Antimicrobial activity against Entamoeba histolytica […] trophozoites infected in Syrian hamster assessed as ALP level at 0.05 mg/kg, ip at 4 days post infection and measured on day 8 (reference value: 638 +/- 50 U/L); format: functional, HM-1:IMSS; conditions: time 4 day
Entamoeba histolytica [21] = assay: Antimicrobial activity against Entamoeba histolytica […] trophozoites infected in Syrian hamster assessed as blood ureic nitrogen level at 0.05 mg/kg, ip at 4 days post infection and measured on day 8 (reference value: […]); format: functional, HM-1:IMSS; conditions: time 4 day
BEAS-2B = assay: Cytotoxicity against human BEAS-2B cells assessed as reduction in cell viability after 24 hrs by MTT assay; format: cell-based
Entamoeba histolytica [22] = assay: Antimicrobial activity against Entamoeba histolytica […] trophozoites infected in Syrian hamster assessed as triglycerides level at 0.05 mg/kg, ip at 4 days post infection and measured on day 8 (reference value: 395 +/- 41 mg/dl); format: functional, HM-1:IMSS; conditions: time 4 day
Entamoeba histolytica [23] = assay: Binding affinity to Entamoeba histolytica […] trophozoites actin assessed as induction of polarization of polymerized actin at IC50 concentration incubated for 1 hrs by […] staining based confocal microscopic analysis
Entamoeba histolytica [24] = assay: Induction of apoptosis in Entamoeba histolytica […] trophozoites assessed as late apoptotic cells at IC50 concentration after 48 hrs by annexin-V-FITC/propidium iodide staining based flow cytometric analysis (reference value: 0.7%); format: functional, HM-1:IMSS
Entamoeba histolytica [25] = assay: Induction of apoptosis in Entamoeba histolytica […] trophozoites assessed as early apoptotic cells at IC50 concentration after 48 hrs by annexin-V-FITC/propidium iodide staining based flow cytometric analysis (reference value: 0.9%); format: functional, HM-1:IMSS
Entamoeba histolytica [26] = assay: Antimicrobial activity against Entamoeba histolytica […] trophozoites assessed as decrease in granularity at IC50 concentration after 48 hrs by uranyl acetate staining based TEM analysis; format: functional, organism-based; conditions: HM-1:IMSS

## O=c1c(O)c(-c2ccc(O)cc2)oc2cc(O)cc(O)c12 [KAEMPFEROL]
Entamoeba histolytica [1]
  Activity: 87.3%
Entamoeba histolytica [2]
  inhibition: Active
Entamoeba histolytica [3]
  Activity: 33.36%
Entamoeba histolytica [4]
  Activity: 0.4 mg/dL
Entamoeba histolytica [5]
  Activity: Active
Entamoeba histolytica [6]
  IC50: 0.23 µM
Entamoeba histolytica [7]
  Activity: 2.4%
Entamoeba histolytica [8]
  Activity: Active
CHO-K1
  IC50: 240 µM
Entamoeba histolytica [9]
  Activity: 55 U/L
Entamoeba histolytica [10]
  inhibition: Active
Entamoeba histolytica [11]
  Activity: Active
Entamoeba histolytica [12]
  inhibition: Active
Entamoeba histolytica [13]
  Activity: 679 thousand/mm3
Giardia intestinalis
  ED50: 2.06 µmol/kg
Entamoeba histolytica [14]
  Activity: 0.5 mg/dL
Entamoeba histolytica [15]
  Activity: Active
Entamoeba histolytica [16]
  Activity: 42 mg/dL
Entamoeba histolytica [17]
  Activity: 58 mg/dL
Entamoeba histolytica [18]
  inhibition: Active
Entamoeba histolytica [19]
  Activity: 19 thousand/mm3
Entamoeba histolytica [20]
  Activity: 348 U/L
Entamoeba histolytica [21]
  Activity: 19 mg/dL
BEAS-2B
  IC50: 350 µM
Entamoeba histolytica [22]
  Activity: 442 mg/dL
Entamoeba histolytica [23]
  Activity: Active
Entamoeba histolytica [24]
  Activity: 6.1%
Entamoeba histolytica [25]
  Activity: 4.2%
Entamoeba histolytica [26]
  Activity: Active
